ChEMBL document CHEMBL3621109, “Probing Mechanisms of CYP3A Time-Dependent Inhibition Using a Truncated Model System” (ACS Med Chem Lett, 2015)

Assays:
[1] = Inhibition of CYP3A (unknown origin) using midazolam as substrate; type: ADME, Homo sapiens
[2] = Inhibition of CYP3A (unknown origin) using testosterone as substrate; type: ADME, Homo sapiens

| IC50 [1] [µM] | IC50 [2] [µM] | Structure (SMILES) |
| --- | --- | --- |
| 5 | 4.3 | Cn1ncc(NC(=O)c2ccccc2)c1N1CC[C@H](N)CC(F)(F)C1 |
| 7.7 | 2.5 | Cn1ncc(NC(=O)OCc2ccccc2)c1N1CC[C@H](N)CC(F)(F)C1 |
| 0.84 | 1.7 | Cn1ncc(NC(=O)c2ccccc2)c1N1CCCCC(F)(F)C1 |
| > 10 | – | Cn1ncc(NC(=O)c2ccccc2)c1N1CCC(O)CC(F)(F)C1 (racemic) |
